target: T1, human RORγ-LBD (Homo sapiens, UniProt P51449); assay: ROR gamma coactivator peptide recruitment Alphascreen assay (RORγ-LBD binding to GRIP1 coactivator peptide); type: biochemical; conditions: 5 nM human RORγ-LBD, 30 nM 7-β-hydroxycholesterol, 50 nM biotinylated GRIP1 coactivator peptide, overnight incubation at room temperature; read-out: result (pIC50, RORγ coactivator peptide recruitment Alphascreen assay) (converted)
T1 construct: made in house; host or cells: E. coli (BL-21)
T1 sequence (P51449 262-518): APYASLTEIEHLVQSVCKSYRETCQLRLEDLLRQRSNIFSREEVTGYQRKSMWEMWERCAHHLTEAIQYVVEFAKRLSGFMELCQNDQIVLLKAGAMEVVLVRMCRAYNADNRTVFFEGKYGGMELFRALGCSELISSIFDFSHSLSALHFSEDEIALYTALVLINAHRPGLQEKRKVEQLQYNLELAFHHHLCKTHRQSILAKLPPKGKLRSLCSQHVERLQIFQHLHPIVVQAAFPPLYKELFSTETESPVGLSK
Procedure, shortened: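 His/Flag-tagged human RORγ-LBD (aa 262-518, E. coli-expressed, 5 nM) with agonist 7-β-hydroxycholesterol (30 nM) and biotinylated GRIP1 LXXLL peptide (50 nM) in HEPES pH 7.4 buffer, 2.5% DMSO. Compound 1-in-2 dilutions; Alphascreen bead signal read after overnight incubation at room temperature; pIC50 calculated.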

IC50 [nM] | SMILES
10.5 | Cc1ncc(Cl)c(C(=O)CN(CC(C)(C)C)C(=O)c2cnn([C@H]3CC[C@](C)(C(=O)O)CC3)c2C(F)(F)F)c1Cl [Example 715, trans-4-(4-((2-(3,5-dichloro-2-methyl-4-pyridinyl)-2-oxoethyl)(2,2-dimethylpropyl)carbamoyl)-5-(trifluoromethyl)-1H-pyrazol-1-yl)-1-methylcyclohexanecarboxylic acid]
9.33 | Cc1cc(Cl)c(C(=O)CN(CC2(F)CCCC2)C(=O)c2cnn([C@H]3CC[C@](C)(C(=O)O)CC3)c2C(F)(F)F)c(Cl)n1 [Example 751, trans-4-(4-((2-(2,4-dichloro-6-methyl-3-pyridinyl)-2-oxoethyl)((1-fluorocyclopentyl)methyl)carbamoyl)-5-(trifluoromethyl)-1H-pyrazol-1-yl)-1-methylcyclohexanecarboxylic acid]
2.09 | Cc1cc(Cl)c(C(=O)CN(Cc2cc(F)c(C(F)(F)F)c(F)c2)C(=O)c2cnn([C@H]3CC[C@H](C(=O)O)CC3)c2C(F)(F)F)c(Cl)c1 [Example 522, trans-4-(4-((2-(2,6-dichloro-4-methylphenyl)-2-oxoethyl)(3,5-difluoro-4-(trifluoromethyl)benzyl)carbamoyl)-5-(trifluoromethyl)-1H-pyrazol-1-yl)cyclohexanecarboxylic acid]
7.59 | C[C@H](C(=O)O)[C@H]1CC[C@H](n2ncc(C(=O)N(CC(=O)c3c(Cl)cncc3Cl)Cc3cc(F)cc(F)c3)c2C(F)(F)F)CC1 [Example 780, 2-(trans-4-(4-((2-(3,5-dichloro-4-pyridinyl)-2-oxoethyl)(3,5-difluorobenzyl)carbamoyl)-5-(trifluoromethyl)-1H-pyrazol-1-yl)cyclohexyl)propanoic acid]
5.25 | CC(C)(C)CN(CC(=O)c1c(Cl)cncc1Cl)C(=O)c1cnn([C@H]2CC[C@](C)(CC(=O)O)CC2)c1C(F)(F)F [Example 791, (trans-4-(4-((2-(3,5-dichloro-4-pyridinyl)-2-oxoethyl)(2,2-dimethylpropyl)carbamoyl)-5-(trifluoromethyl)-1H-pyrazol-1-yl)-1-methylcyclohexyl)acetic acid]
2570 | CC(C)(C)CN(C[C@@H](O)c1c(Cl)cccc1Cl)C(=O)c1cnn([C@H]2CC[C@H](C(=O)O)CC2)c1C(F)(F)F [Example 574, trans-4-(4-(((2S)-2-(2,6-dichlorophenyl)-2-hydroxyethyl)(2,2-dimethylpropyl)carbamoyl)-5-(trifluoromethyl)-1H-pyrazol-1-yl)cyclohexanecarboxylic acid]
45.7 | CC1(CN(CC(=O)c2c(Cl)cncc2Cl)C(=O)c2cnn([C@H]3CC[C@H](C(=O)O)C(C)(C)C3)c2C(F)(F)F)CCC1 (single isomer, unassigned) [Example 807]
2.82 | C[C@]1(C(=O)O)CC[C@H](n2ncc(C(=O)N(CC(=O)c3c(Cl)cccc3Cl)[C@H]3CCC34CCCC4)c2C(F)(F)F)CC1 [Example 626]
9.77 | CC1(C)CC[C@H](CN(CC(=O)c2c(Cl)cccc2Cl)C(=O)c2cnn([C@H]3CC[C@](C)(C(=O)O)CC3)c2C(F)(F)F)O1 [Example 821, trans-4-(4-((2-(2,6-dichlorophenyl)-2-oxoethyl)(((2R)-5,5-dimethyltetrahydro-2-furanyl)methyl)carbamoyl)-5-(trifluoromethyl)-1H-pyrazol-1-yl)-1-methylcyclohexanecarboxylic acid]
2.24 | CC1(C)C[C@H]1CN(CC(=O)c1c(Cl)cncc1Cl)C(=O)c1cnn([C@H]2CC[C@](C)(C(=O)O)CC2)c1C(F)(F)F [Example 743, trans-4-(4-((2-(3,5-dichloro-4-pyridinyl)-2-oxoethyl)(((1S)-2,2-dimethylcyclopropyl)methyl)carbamoyl)-5-(trifluoromethyl)-1H-pyrazol-1-yl)-1-methylcyclohexanecarboxylic acid]
3.31 | CC1(CN(CC(=O)c2c(Cl)cncc2Cl)C(=O)c2cnn([C@H]3CC[C@](C)(C(=O)O)CC3)c2C(F)(F)F)CCCCC1 [Example 588, trans-4-(4-((2-(3,5-dichloro-4-pyridinyl)-2-oxoethyl)((1-methylcyclohexyl)methyl)carbamoyl)-5-(trifluoromethyl)-1H-pyrazol-1-yl)-1-methylcyclohexanecarboxylic acid]
6610 | CC1(C)CC(CN(CC(=O)c2ccccc2C#N)C(=O)c2cnn([C@H]3CC[C@](C)(C(=O)O)CC3)c2C(F)(F)F)C1 [Example 604, trans-4-(4-((2-(2-cyanophenyl)-2-oxoethyl)((3,3-dimethylcyclobutyl)methyl)carbamoyl)-5-(trifluoromethyl)-1H-pyrazol-1-yl)-1-methylcyclohexanecarboxylic acid]
9.55 | Cc1cc(Cl)c(C(=O)CN(C(=O)c2cnn([C@H]3CC[C@H](C(=O)O)CC3)c2C(F)(F)F)[C@H]2C[C@H](C(C)(C)C)C2)c(Cl)c1 [Example 536, trans-4-(4-((2-(2,6-dichloro-4-methylphenyl)-2-oxoethyl)(trans-3-(2-methyl-2-propanyl)cyclobutyl)carbamoyl)-5-(trifluoromethyl)-1H-pyrazol-1-yl)cyclohexanecarboxylic acid]
2.04 | COc1cc(Cl)c(C(=O)CN(Cc2ccc(F)cc2)C(=O)c2cnn([C@H]3CC[C@H](CC(=O)O)CC3)c2C(F)(F)F)c(Cl)c1 [Example 889, (trans-4-(4-((2-(2,6-dichloro-4-methoxyphenyl)-2-oxoethyl)(4-fluorobenzyl)carbamoyl)-5-(trifluoromethyl)-1H-pyrazol-1-yl)cyclohexyl)acetic acid]
24.5 | C[C@H]1C[C@@H](n2ncc(C(=O)N(CC(=O)c3c(Cl)cncc3Cl)C[C@]34CC[C@H](CC3)O4)c2C(F)(F)F)CC[C@@H]1C(=O)O [Example 881, (1S,2S,4S)-4-(4-((2-(3,5-dichloro-4-pyridinyl)-2-oxoethyl)((1s,4s)-7-oxabicyclo[2.2.1]hept-1-ylmethyl)carbamoyl)-5-(trifluoromethyl)-1H-pyrazol-1-yl)-2-methylcyclohexanecarboxylic acid]
102 | CC(C)(C)CN(CC(=O)c1c(Cl)cncc1Cl)C(=O)c1cnn([C@H]2CC[C@@](C)(CC(=O)O)CC2)c1C(F)(F)F [Example 792, (cis-4-(4-((2-(3,5-dichloro-4-pyridinyl)-2-oxoethyl)(2,2-dimethylpropyl)carbamoyl)-5-(trifluoromethyl)-1H-pyrazol-1-yl)-1-methylcyclohexyl)acetic acid]
2.4 | C[C@]1(C(=O)O)CC[C@H](n2ncc(C(=O)N(CC(=O)c3c(Cl)cccc3Cl)CC3(C(F)(F)F)CC3)c2C(F)(F)F)CC1 [Example 729, (1r,4r)-4-(4-((2-(2,6-dichlorophenyl)-2-oxoethyl)((1-(trifluoromethyl)cyclopropyl)methyl)carbamoyl)-5-(trifluoromethyl)-1H-pyrazol-1-yl)-1-methylcyclohexanecarboxylic acid]
0.871 | CC1(CN(CC(=O)c2c(Cl)cc(F)cc2Cl)C(=O)c2cnn([C@H]3CC[C@](C)(C(=O)O)CC3)c2C(F)(F)F)CCCC1 [Example 671, trans-4-(4-((2-(2,6-dichloro-4-fluorophenyl)-2-oxoethyl)((1-methylcyclopentyl)methyl)carbamoyl)-5-(trifluoromethyl)-1H-pyrazol-1-yl)-1-methylcyclohexanecarboxylic acid]
6.17 | CC(C)(C)CN(CC(=O)c1c(Cl)cncc1Cl)C(=O)c1cnn([C@@H]2CC[C@]3(C(=O)O)CCC[C@@H]3C2)c1C(F)(F)F [Example 877, (3aR,6R,7aR)-6-(4-((2-(3,5-dichloropyridin-4-yl)-2-oxoethyl)(neopentyl)carbamoyl)-5-(trifluoromethyl)-1H-pyrazol-1-yl)octahydro-1H-indene-3a-carboxylic acid]
2.34 | O=C(O)C[C@H]1CC[C@H](n2ncc(C(=O)N(CC(=O)c3c(Cl)cncc3Cl)Cc3cc(F)cc(F)c3)c2C(F)(F)F)CC1 [Example 755, (trans-4-(4-((2-(3,5-dichloro-4-pyridinyl)-2-oxoethyl)(3,5-difluorobenzyl)carbamoyl)-5-(trifluoromethyl)-1H-pyrazol-1-yl)cyclohexyl)acetic acid]
70.8 | Cc1cc(Cl)c(C(=O)CN(CC2(F)CC2)C(=O)c2cnn([C@H]3CC[C@](C)(C(=O)O)CC3)c2C(F)(F)F)c(Cl)n1 [Example 703, trans-4-(4-((2-(2,4-dichloro-6-methyl-3-pyridinyl)-2-oxoethyl)((1-fluorocyclopropyl)methyl)carbamoyl)-5-(trifluoromethyl)-1H-pyrazol-1-yl)-1-methylcyclohexanecarboxylic acid]
69.2 | O=C(c1cnn([C@H]2CC[C@H](C(=O)O)CC2)c1C(F)(F)F)N(CCc1cccc2[nH]ccc12)Cc1ccc(Cl)cc1 [Example 506, trans-4-(4-((4-chlorobenzyl)(2-(1H-indol-4-yl)ethyl)carbamoyl)-5-(trifluoromethyl)-1H-pyrazol-1-yl)cyclohexanecarboxylic acid]
2.14 | C[C@]1(C(=O)O)CC[C@H](n2ncc(C(=O)N(CC(=O)c3c(Cl)cccc3Cl)[C@H]3CCC34CCC4)c2C(F)(F)F)CC1 [Example 641, trans-4-(4-((2-(2,6-dichlorophenyl)-2-oxoethyl)((1S)-spiro[3.3]hept-1-yl)carbamoyl)-5-(trifluoromethyl)-1H-pyrazol-1-yl)-1-methylcyclohexanecarboxylic acid]

— patent US9365522B2, “Pyrazole amide derivative” (AMGEN INC., priority 2015, dated 2016)
